The source of these data is patent US8883180B2 (priority 2007, dated 2014).

Format in all cases: in vivo
For assay [1], the system named is Blumeria graminis f. sp. hordei. Nature of the assay: Blumeria test (barley)/SAR 5d. The following applies: 1000 ppm, evaluated 7 days after inoculation.
Assay [2] has as its system larvae of the fall army worm (Spodoptera frugiperda). Nature of the assay: Spodoptera frugiperda - test (sprayed cabbage leaves). Particulars: mortality. The protocol: (§1) Solvent: 7 parts by weight of dimethylformamide
(§2) Emulsifier: 2 parts by weight of alkylaryl polyglycolether
(§3) To produce a suitable preparation of active compound, 1 part by weight of active compound is mixed with the stated amount of solvent and emulsifier, and the concentrate is diluted with emulsifier-containing water to the desired concentration.
Cabbage leaves (Brassica oleracea) are treated by being sprayed into the preparation of the active compound of the desired concentration and are infested with larvae of the fall army worm (Spodoptera frugiperda) as long as the leaves are still moist.
After the specified period of time, the mortality in % is determined. 100% means that all the caterpillars have been killed; 0% means that none of the caterpillars have been killed.

Assay [3] relates to larvae of the Brown plant hopper (Nilaparvata lugens). The assay can be described thus: Nilaparvata lugens - test (sprayed rice plants). The following applies: mortality. The procedure:
as §1, §2, §3
Rice plants (Oryza sativa) are treated by being sprayed with the preparation of the active compound at the desired concentration and are infested with larvae of the Brown plant hopper (Nilaparvata lugens) as long as the leaves are still moist.
After the specified period of time, the mortality in % is determined. 100% means that all the hopper larvae have been killed; 0% means that none of the hopper larvae have been killed.

Assay [4] deals with rice blast (Pyricularia oryzae). The following applies: 100 ppm, inoculated 5 days after spraying, evaluated 7 days after inoculation.
Assay [5] has as its system larvae of the mustard beetle (Phaedon cochleariae). The assay can be described thus: Phaedon cochleariae - test (sprayed cabbage leaves). Particulars: for Efficacy in % after 3d: Table C-1, mortality; for Efficacy in % after 4d: Table C-2, mortality; for Efficacy in % after 6d: Table C-3, mortality. The protocol:
as §1, §2, §3
Cabbage leaves (Brassica oleracea) are treated by being sprayed with the preparation of the active compound at the desired concentration and are infested with larvae of the mustard beetle (Phaedon cochleariae) as long as the leaves are still moist.
After the specified period of time, the mortality in % is determined. 100% means that all the beetle larvae have been killed; 0% means that none of the beetle larvae have been killed.

Assay [6] concerns rice blast (Pyricularia oryzae). Particulars: 20 ppm, inoculated 1 day after spraying, evaluated 5 days after inoculation.

Read-outs that look alike come from different tables or passages of the source.

As to `CNC(=O)c1cc(Cl)cc(C)c1NC(=O)c1cc(Br)nn1-c1ncccc1Cl` [Chlorantraniliprole, chlorantraniliprole], the Efficacy in % in assay [1] (Table A-1, 1st leaf) is given as 11%; in assay [1] (Table A-2, printed 1st leaf), 0%; in assay [4], 0%; in assay [6], 0%. The “Efficacy in % after 6d” value in assay [2] (0.032 ppm) and in assay [5] (0.8 ppm) was 15% throughout. In addition, the “Efficacy in % after 3d” value in assay [3] (4 ppm) and in assay [5] (0.16 ppm) was 0% throughout. The “Efficacy in % after 4d” value in assay [5] (0.8 ppm) worked out at 45%; in assay [5] (4 ppm), 70%.
With `N#Cc1ccccc1NC(=O)c1snc(Cl)c1Cl` [Isotianil, 3,4-dichloro-N-(2-cyanophenyl)-5-isothiazolecarboxamide], the Efficacy in % in assay [1] (Table A-1, 1st leaf) was 44%; in assay [1] (Table A-2, printed 1st leaf) it was 44%; in assay [4] it was 43%; in assay [6], 35%. Besides, the “Efficacy in % after 6d” value in assay [2] (200 ppm) and in assay [5] (200 ppm) was 0% in each case. Besides, the “Efficacy in % after 3d” value in assay [3] (200 ppm) and in assay [5] (200 ppm) was 0% each time. Further, the “Efficacy in % after 4d” value in assay [5] (200 ppm) was 15%.
With `O=[N+]([O-])NC1=NCCN1Cc1ccc(Cl)nc1` [Imidacloprid, imidacloprid], the Efficacy in % in assay [4] and in assay [6] was 0% throughout. Besides, the “Efficacy in % after 3d” value in assay [5] (4 ppm) is 0%.
On to `N#C/N=C1\SCCN1Cc1ccc(Cl)nc1` [Thiacloprid, thiacloprid], for which, in assay [5] (4 ppm), the “Efficacy in % after 4d” value was 45%.
Take `C/C(=N\C#N)N(C)Cc1ccc(Cl)nc1` [Acetamiprid, acetamiprid]: the “Efficacy in % after 6d” value in assay [2] (0.16 ppm) was 15%.
For the compound `CN/C(=N\[N+](=O)[O-])NCc1cnc(Cl)s1` [Clothianidin, clothianidin], the “Efficacy in % after 3d” value in assay [3] (4 ppm) is 90%. Further, the “Efficacy in % after 4d” value in assay [5] (20 ppm) is listed as 70%. Also, the “Efficacy in % after 6d” value in assay [5] (4 ppm) is 90%.
